These are literature values, as cited in patent US20250312247A1, “OXYGEN GENERATING FACE MASKS” (DERMOQ, INC., priority 2018, published 2025).

The structures appear in SMILES notation.

The conditions of the data set: topically applied dissolved oxygen, transcutaneous.

Regarding `O=O` [dissolved oxygen, oxygen], the “depth of penetration through human skin” value was greater than 700 μm.
